In ChEMBL document CHEMBL4002573, “New insights into the SAR and drug combination synergy of 2-(quinolin-4-yloxy)acetamides against Mycobacterium tuberculosis” (Eur J Med Chem, 2017) one finds MIC and Activity data, which are given here for 25 compounds.

≈ marks a conversion by molar mass, not a printed value. Where only a bound is given, the exact number is not on record here.

For assay [1], the system named is Mycobacterium tuberculosis. As to the kind of experiment: microbe, parasite or virus in culture. The settings on record: H37Rv, 168 h.
Description: Antimycobacterial activity against Mycobacterium tuberculosis H37Rv after 7 days by resazurin reduction microplate assay
Assay [2] deals with Mycobacterium tuberculosis. Briefly: microbe, parasite or virus in culture. Conditions: CDCT-4 (1105/09), 168 h.
Description: Antimycobacterial activity against Mycobacterium tuberculosis CDCT-4 (1105/09) clinical isolate after 7 days by resazurin reduction microplate assay
The subject of assay [3] is Mycobacterium tuberculosis. As to the kind of experiment: microbe, parasite or virus in culture. Conditions: PE-003, 168 h.
Description: Antimycobacterial activity against Mycobacterium tuberculosis PE-003 clinical isolate after 7 days by resazurin reduction microplate assay
The subject of assay [4] is Mycobacterium tuberculosis. As to the kind of experiment: Bactericidal activity against Mycobacterium tuberculosis H37Rv infected in mouse RAW264.7 cells assessed as bacterial colony formation at 5 uM after 5 days (reference value: 4.1 to 4.73 log10CU). The format is functional.

In turn, `COc1ccc2nc(C)cc(NCC(=O)Nc3ccccc3OC)c2c1` had an MIC in assay [1] of more than 28.5 µM. Same read-out and setting: then `COc1ccc2nc(C)cc(OCC(=O)c3ccc4ccccc4c3)c2c1`, with 1.75 µM; and `COc1ccc2nc(C)cc(NCC(=O)Nc3ccc4ccccc4c3)c2c1`, with 6.73 µM.

`CCCc1cc(OCC(=O)Nc2ccccc2OC)c2cc(OC)ccc2n1` returned an MIC in assay [1] of more than 26.3 µM. Regarding `CCc1cc(C(N)=S)ccn1` [ETHIONAMIDE], the MIC in assay [2] came out at 11.3 µM (≈ 1.88 µg/mL); in assay [1], 2.5 µg/mL; in assay [3] it was 61.2 µM (≈ 10.2 µg/mL). With `COc1ccccc1NC(=O)COc1cc(C)nc2ccc(Br)cc12`, the MIC in assay [1] turned out to be 0.78 µM. The same measure, in the same setting: then `CCc1cc(OCC(=O)Nc2ccccc2OC)c2cc(OC)ccc2n1`, with 0.86 µM. For `NNC(=O)c1ccncc1` [ISONIAZID], the MIC in assay [2] is more than 70 µM; in assay [1], 0.16 to 1.46 µM; in assay [3], more than 70 µM. For the same compound, the Activity in assay [4] is listed as 2.44 log10CFU. In assay [1], `COc1c(N2C[C@@H]3CCCN[C@@H]3C2)c(F)cc2c(=O)c(C(=O)O)cn(C3CC3)c12` [MOXIFLOXACIN] came in with an MIC of 0.075 µg/mL. The same measure, in the same setting: then `COc1ccc2nc(C)cc(OCC(=O)Nc3cccc4c3CCCC4)c2c1`, with 0.83 µM. The same measure, in the same setting: then `COc1ccccc1NC(=O)COc1cc(C)nc2ccc(Cl)cc12`, with 1.75 µM; and `COc1ccc2nc(C)c(Cc3ccccc3)c(OCC(=O)Nc3ccccc3OC)c2c1`, with more than 22.6 µM; and `COc1ccc2nc(C)cc(OCC(=O)N[C@@H]3CCCc4ccccc43)c2c1`, with 13.3 µM. Same read-out and setting: then `COc1ccc2nc(C)cc(OCC(=O)N[C@H]3CCCc4ccccc43)c2c1`, with 1.66 µM; and `COc1ccc2nc(C)cc(OCC(=O)N(C)c3ccccc3OC)c2c1`, with more than 27.3 µM.

With `CN[C@@H]1[C@H](O[C@H]2[C@H](O[C@H]3[C@H](O)[C@@H](O)[C@H](N=C(N)N)[C@@H](O)[C@@H]3N=C(N)N)O[C@@H](C)[C@]2(O)C=O)O[C@@H](CO)[C@H](O)[C@H]1O` [STREPTOMYCIN], in assay [1], the MIC worked out at 0.31 µg/mL. Consider `CO[C@H]1/C=C/O[C@@]2(C)Oc3c(C)c(O)c4c(O)c(c(/C=N/N5CCN(C)CC5)c(O)c4c3C2=O)NC(=O)/C(C)=C\C=C\[C@H](C)[C@H](O)[C@@H](C)[C@@H](O)[C@@H](C)[C@H](OC(C)=O)[C@@H]1C` [RIFAMPIN], for which the MIC in assay [2] was more than 100 µM; in assay [1], 0.038 µg/mL. In addition, the Activity in assay [4] is 2.44 log10CFU. Turning to `COc1ccc2nc(C)cc(OCc3ccc4ccccc4c3)c2c1`, the MIC in assay [1] was 1.9 µM.

`CCOc1ccc2nc(C)cc(OCC(=O)Nc3ccccc3OC)c2c1` came in with an MIC in assay [1] of 1.75 µM.

For the compound `CC[C@@H](CO)NCCN[C@@H](CC)CO` [ETHAMBUTOL], in assay [1], the MIC was in the range of 2.5 to 5 µg/mL. The same measure, in the same setting: then `COc1ccccc1NC(=O)COc1cc(C)nc2ccc(C(F)(F)F)cc12`, with more than 25.6 µM; and `COc1ccc2nc(C)cc(OCC(=O)N3CCCCC3)c2c1`, with more than 31.8 µM. Still for that read-out and setting: with `COc1ccccc1NC(=O)COc1cc(C)nc2ccc(F)cc12` the figure was 14.7 µM.

For `COc1ccc2nc(C)cc(OCC(=O)N(c3ccccc3)c3ccccc3)c2c1`, the MIC in assay [1] is more than 25.1 µM. Still for that read-out and setting: with `COc1ccc2nc(C(C)C)cc(OCC(=O)Nc3ccccc3OC)c2c1` the figure was more than 26.3 µM.
